Laboratory results from PMC5519534, “AM-37 and ST-36 Are Small Molecule Bombesin Receptor Antagonists” (Frontiers in Endocrinology, 2017).
Marks after values point to notes of the source that are not given here. Where a SMILES comes first, the peptide text is derived from it. [ ]: non-standard residue; d: D form. Nle = CCCC[C@H](N)C(=O)O; βAla = NCCC(=O)O

Tests used:
EGFR = EGFR tyrosine phosphorylation by western blot, NCI-H1299 cells transfected with BB2R; format: cell-based, human; conditions: for Effect of pretreatment on BA1-induced EGFR tyrosine phosphorylation: 10 µM pretreatment, then 100 nM BA1
Description: (§1) The tyrosine phosphorylation of the EGFR and ERK was investigated by western blot. NSCLC cells transfected with BB1R, BB2R, and BRS-3 were placed in 10 cm dishes. When the cells were confluent, they were placed in SIT medium (RPMI-1640 containing 3 × 10^−8 M sodium selenite, 5 µg/ml bovine insulin, and 10 µg/ml apo-transferrin; Sigma-Aldrich, St. Louis, MO, USA) for 3 h. […] Cell extracts were made as described previously ([16]), and 600 µg of protein extract was immunoprecipitated with 4 µg anti-phosphotyrosine antibody (Becton Dickenson, USA). The immunoprecipitates were fractionated using a 4–20% polyacrylamide gel (Novex, San Diego, CA, USA). Proteins were transferred to a nitrocellulose membrane and incubated with 2 µg anti-EGFR or anti-ERK antibody (Cell Signaling Technologies, Danvers, MA, USA). After washing the blot, it was incubated with enhanced chemiluminescence detection reagent (Thermo Scientific) for 5 min and exposed to Biomax XAR film (Carestream, Rochester, NY, USA). The band intensity was determined using a Kodak image station 440 densitometer. Alternatively, 20 µg of protein extract was loaded onto polyacrylamide gels and after transfer to nitrocellulose, the blot was probed with anti-PY^1,068-EGFR, anti-EGFR, anti-PY^204ERK, or anti-ERK (Cell Signaling Technologies, Danvers, MA, USA).

BB2R [1] = biological target: T1, BB2R (Homo sapiens, UniProt P30550); experiment: Cytosolic Ca2+ (Fura-2AM) in NCI-H1299 cells transfected with BB2R; format: cell-based; conditions: for Effect on the increase in cytosolic Ca2+ caused by BA1 / Effect on basal cytosolic Ca2+: 30 µM, BB2R-transfected cells
T1 construct: expressed in transfected cells; host or cells: NCI-H1299
T1 sequence (P30550 whole entry): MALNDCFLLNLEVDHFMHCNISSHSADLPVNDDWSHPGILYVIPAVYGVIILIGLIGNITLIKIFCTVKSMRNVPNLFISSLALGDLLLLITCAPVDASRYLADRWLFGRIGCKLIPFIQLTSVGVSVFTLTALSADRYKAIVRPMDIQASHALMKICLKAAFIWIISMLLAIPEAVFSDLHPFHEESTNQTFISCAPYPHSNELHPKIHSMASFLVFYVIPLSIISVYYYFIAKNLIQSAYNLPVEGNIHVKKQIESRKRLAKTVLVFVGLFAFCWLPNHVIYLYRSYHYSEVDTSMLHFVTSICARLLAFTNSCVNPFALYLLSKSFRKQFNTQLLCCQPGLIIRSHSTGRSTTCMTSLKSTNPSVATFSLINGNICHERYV
Description: (§2) Non-small cell lung cancer cell line NCI-H1299 (ATCC, Manassas, VA, USA) was stably transfected with BB1R, BB2R, and BRS-3. The transfected cells were grown in RPMI-1640 containing 10% fetal bovine serum (FBS) with 0.3 mg/ml geneticin (Invitrogen, Grand Island, NY, USA). The transfected cells, which contained approximately 100,000 receptors/cell, were weekly split using trypsin/EDTA ([13]). In addition, lung cancer cell lines NCI-H727, H1299, and H1975 were purchased from ATCC and cultured in RPMI-1640, which contained 10% FBS. The cell types were derived from different human biopsy specimens. These studies were approved by the NIDDK biospecimens and biosafety committees.
(§3) The ability of AM-37, ST-36, AM-13, and AM-14 to function as BBR antagonists was investigated. NSCLC cells transfected with BB1R, BB2R, and BRS-3 were harvested and loaded with Fura-2AM (Calbiochem, La Jolla, CA, USA) as described previously ([16]). The excitation ratio was determined at 340 and 380 nm with an emission wavelength of 510 nm.

NSCLC cells = experiment: Ionomycin-induced cytosolic Ca2+ in NSCLC cells (specificity); format: cell-based, human; conditions: for Effect on the ability of ION to increase Ca2+: 5 µg/ml ionomycin
Description: as §3

BRS-3 [2] = biological target: T2, BRS-3 (Homo sapiens, UniProt P32247); experiment: Cytosolic Ca2+ (Fura-2AM) in NCI-H1299 cells transfected with BRS-3; format: cell-based; conditions: for Effect on the increase in cytosolic Ca2+ caused by BA1 / Effect on basal cytosolic Ca2+: 30 µM, BRS-3-transfected cells
T2 construct: expressed in transfected cells; host or cells: NCI-H1299
T2 sequence (P32247 1-399): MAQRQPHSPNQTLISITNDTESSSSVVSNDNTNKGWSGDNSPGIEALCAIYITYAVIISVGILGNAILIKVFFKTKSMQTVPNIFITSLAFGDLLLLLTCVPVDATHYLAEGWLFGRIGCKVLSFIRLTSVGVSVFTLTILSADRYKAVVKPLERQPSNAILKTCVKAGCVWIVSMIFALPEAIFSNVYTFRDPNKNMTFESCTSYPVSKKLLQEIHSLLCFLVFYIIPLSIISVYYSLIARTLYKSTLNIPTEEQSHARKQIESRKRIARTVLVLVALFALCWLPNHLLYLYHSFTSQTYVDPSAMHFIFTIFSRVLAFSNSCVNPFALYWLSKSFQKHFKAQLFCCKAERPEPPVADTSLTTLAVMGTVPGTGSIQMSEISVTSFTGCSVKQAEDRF
Description: as §2, §3

BRS-3 [3] = biological target: T2, BRS-3; experiment: Inhibition of specific 125I-BA1 binding to BRS-3-transfected NCI-H1299 cells; conditions: for Ki: inhibition of specific 125I-BA1 binding, BRS-3-transfected NCI-H1299 cells
Description: as §2
(§4) The ability of AM-37, ST-36, AM-13, and AM-14 to inhibit specific ^125I-BA1 binding to NSCLC cells transfected stably with BB1R, BB2R, and BRS-3 was investigated. NSCLC cells were placed in 24 well plates. When confluent, the cells were washed three times with PBS. The cells were incubated with binding buffer (PBS containing 0.25% bovine serum albumin and 0.025% bacitracin, Sigma-Aldrich, St. Louis, MO, USA). Various concentrations of AM-37, ST-36, AM-13, or AM-14 were added to the cells for 10 min, followed by 100,000 cpm of ^125I-BA1 (0.16 nM) and incubated at 37°C for 30 min when equilibrium of binding was reached. The cells were rinsed three times with binding buffer for 2 min at 4°C. The cells that contained bound peptide dissolved in 0.2 N NaOH and counted in a Wallac 1470 γ-counter. The Ki was calculated as described ([15]).

BB1R [4] = biological target: T3, BB1R (Homo sapiens, UniProt P28336); experiment: Inhibition of specific 125I-BA1 binding to BB1R-transfected NCI-H1299 cells
T3 construct: expressed in transfected cells; host or cells: NCI-H1299
T3 sequence (P28336 whole entry): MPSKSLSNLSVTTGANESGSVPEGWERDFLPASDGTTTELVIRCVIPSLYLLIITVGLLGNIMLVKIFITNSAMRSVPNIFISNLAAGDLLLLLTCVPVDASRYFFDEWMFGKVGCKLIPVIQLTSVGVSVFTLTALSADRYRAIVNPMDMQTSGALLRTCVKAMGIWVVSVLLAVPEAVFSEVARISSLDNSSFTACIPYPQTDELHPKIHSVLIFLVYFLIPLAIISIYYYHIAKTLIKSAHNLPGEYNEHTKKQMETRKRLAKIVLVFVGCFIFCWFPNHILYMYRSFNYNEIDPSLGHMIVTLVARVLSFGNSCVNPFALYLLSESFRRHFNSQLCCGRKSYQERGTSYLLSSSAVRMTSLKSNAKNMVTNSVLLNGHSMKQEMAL
Description: as §2, §4

BB2R [5] = biological target: T1, BB2R; experiment: Inhibition of specific 125I-BA1 binding to BB2R-transfected NCI-H1299 cells; conditions: for Ki: inhibition of specific 125I-BA1 binding, BB2R-transfected NCI-H1299 cells
Source text: Non-small cell lung cancer cell line NCI-H1299 (ATCC, Manassas, VA, USA) was stably transfected with BB1R, BB2R, and BRS-3. […] The transfected cells, which contained approximately 100,000 receptors/cell, were weekly split using trypsin/EDTA ([13]). […] The cell types were derived from different human biopsy specimens. These studies were approved by the NIDDK biospecimens and biosafety committees.
NSCLC cells were placed in 24 well plates. When confluent, the cells were washed three times with PBS. […] The cells were rinsed three times with binding buffer for 2 min at 4°C. […] The Ki was calculated as described ([15]).

ERK = ERK tyrosine phosphorylation by western blot, NCI-H1299 cells transfected with BB2R; format: cell-based, human; conditions: for Effect of pretreatment on BA1-induced ERK tyrosine phosphorylation: 10 µM pretreatment, then 100 nM BA1
Description: as §1

BB1R [6] = biological target: T3, BB1R; experiment: Cytosolic Ca2+ (Fura-2AM) in NCI-H1299 cells transfected with BB1R; format: cell-based; conditions: for Effect on the increase in cytosolic Ca2+ caused by BA1 / Effect on basal cytosolic Ca2+: 30 µM, BB1R-transfected cells
Description: as §2, §3

NCI-H1299 cells = experiment: MTT proliferation assay, NCI-H1299; format: cell-based, human; conditions: for IC50: Homo sapiens, NCI-H1299, 48 h, MTT, 2 days, SIT medium
Description: The proliferation of NSCLC cells was investigated using the 3-(4,5-demethylthiazol-2-yl)-[…]-2H-tetrazolium bromide (MTT) assay as described previously ([16]). NCI-H727, H1299, and H1975 cells were placed in SIT medium and varying concentration of AM-37, ST-36, AM-13, or AM-14 added. After 2 days, 0.1% MTT solution (15 µl) was added. After 4 h, DMSO (150 µl) was added and the absorbance at 570 nm was determined.

NTR = biological target: T4, NTR (Homo sapiens, UniProt P30989); experiment: Neurotensin-induced cytosolic Ca2+ in NSCLC cells (specificity); format: cell-based; conditions: 10 nM neurotensin
T4 construct: endogenous in cells; host or cells: NCI-H1299 (transfected with bombesin receptors)
T4 sequence (P30989 whole entry): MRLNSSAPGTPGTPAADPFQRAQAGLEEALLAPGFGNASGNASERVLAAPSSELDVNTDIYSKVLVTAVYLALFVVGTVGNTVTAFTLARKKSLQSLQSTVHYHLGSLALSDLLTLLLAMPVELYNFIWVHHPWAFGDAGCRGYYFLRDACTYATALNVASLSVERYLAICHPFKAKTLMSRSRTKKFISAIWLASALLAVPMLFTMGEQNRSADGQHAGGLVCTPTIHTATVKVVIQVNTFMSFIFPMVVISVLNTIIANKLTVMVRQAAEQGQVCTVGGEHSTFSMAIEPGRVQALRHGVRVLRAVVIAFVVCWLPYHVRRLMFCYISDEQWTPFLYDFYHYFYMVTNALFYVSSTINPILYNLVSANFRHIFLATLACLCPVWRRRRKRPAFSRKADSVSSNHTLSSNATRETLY

[7] = 30 µM small molecule followed by 10 nM BA1
[8] = 100 nM BA1, relative to control

SMILES	Effect of pretreatment on BA1-induced EGFR tyrosine phosphorylation (EGFR)	Increase in cytosolic Ca2+, BB2R (BB2R [1]; [7])	Effect on the ability of ION to increase Ca2+ (NSCLC cells)	Increase in cytosolic Ca2+, BRS-3 (BRS-3 [2]; [7])	Effect on the increase in cytosolic Ca2+ caused by BA1 (BRS-3 [2]; 10 nM BA1)	Effect on basal cytosolic Ca2+ (BRS-3 [2])	Ki (BRS-3 [3])	Ki (BB1R [4])	Ki (BB2R [5])	Effect of pretreatment on BA1-induced ERK tyrosine phosphorylation (ERK)	Increase in cytosolic Ca2+, BB1R (BB1R [6]; [7])	Effect on the increase in cytosolic Ca2+ caused by BA1 (BB2R [1]; 10 nM BA1)	Effect on basal cytosolic Ca2+ (BB2R [1])	IC50 (NCI-H1299 cells)	Effect on the increase in cytosolic Ca2+ caused by BA1 (BB1R [6]; 10 nM BA1)	Effect on basal cytosolic Ca2+ (BB1R [6])	Effect on the ability of NT to increase cytosolic Ca2+ (NTR)	also measured
COc1ccc(NC(=O)N[C@H](Cc2c[nH]c3ccccc23)C(=O)NCC2(c3ccc(F)cc3)CCCCC2)cc1 [AM-13, (R)-N-[[1-(4-fluorophenyl)cyclohexyl]methyl]-3-(1H-indol-3-yl)-2-[3-(4-methoxyphenyl)ureido]propanamide]	BA1 increased strongly EGFR tyrosine phosphorylation	5 ± 0.6^a nM	no effect	2 ± 0.3^a nM	partially blocked	no effect	> 100 µM	> 100 µM	27 ± 4 µM	not	7 ± 0.8^a nM							
COc1ccc(NC(=O)N[C@@H](Cc2c[nH]c3ccccc23)C(=O)NCC2(c3ccc(F)cc3)CCCCC2)cc1 [AM-14]	little effect	6 + 0.5^a nM	no effect	3 + 0.4^a nM			> 100 µM	> 100 µM	45 ± 8 µM	little effect		partially blocked	no effect	> 50 µM	partially blocked	no effect		
COc1ccc(NC(=O)N[C@H](Cc2c[nH]c3ccccc23)C(=O)NCC2(c3cccnc3)CCCCC2)cc1 [AM-37, (R)-3-(1H-indol-3-yl)-2-[3-(4-methoxyphenyl)ureido]-N-[[1-(3-pyridinyl)cyclohexyl]methyl]propanamide]	addition of BA1 had little effect	0^a nM		0^a nM			5.5 ± 0.6 µM	3.6 ± 0.5 µM	1.4 ± 0.2 µM	decreased significantly	1 ± 0.6^a nM			16 µM	blocked	no effect	no effect	Effect on NCI-H1299 proliferation (NCI-H1299 cells; 3 µM): little effect; Effect on NCI-H1299 proliferation (NCI-H1299 cells; 30 µM): strongly inhibited
CCCC[C@H](NC(=O)[C@H](Cc1ccccc1)NC(=O)[C@H](Cc1c[nH]cn1)NC(=O)CCNC(=O)[C@@H](NC(=O)[C@H](C)NC(=O)[C@H](Cc1c[nH]c2ccccc12)NC(=O)[C@H](CCC(N)=O)NC(=O)[C@H](N)Cc1ccc(O)cc1)C(C)C)C(N)=O [BA1, (D-Tyr^6, β-Ala^11, Phe^13, Nle^14)BB^6–14, reference compound] (H-[dY]QWAV[βAla]HF[Nle]-NH2; N-terminus and C-terminus assumed)																		EGFR tyrosine phosphorylation (EGFR; [8]): 326%; Cytosolic Ca2+ reached after BA1 (BB2R [1]; 10 nM BA1, from 160 nM, Figure 2D): 186 nM; Increase in cytosolic Ca2+, BB2R (BB2R [1]; BA1 10 nM alone): 26.3 ± 1.7 nM; Cytosolic Ca2+ reached after BA1 (BRS-3 [2]; 10 nM BA1, from 170 nM, Figure 2G): 194 nM; Increase in cytosolic Ca2+, BRS-3 (BRS-3 [2]; BA1 10 nM alone): 24.4 ± 2.3 nM; ERK tyrosine phosphorylation (ERK; [8]): 277%; Cytosolic Ca2+ reached after BA1 (BB1R [6]; 10 nM BA1, from 160 nM, within seconds, Figure 2A): 178 nM; Increase in cytosolic Ca2+, BB1R (BB1R [6]; BA1 10 nM alone): 18.5 ± 1.1 nM
COc1ccc(NC(=O)N[C@@H](Cc2c[nH]c3ccccc23)C(=O)NCC2(c3cccnc3)CCCCC2)cc1 [ST-36]	addition of BA1 had little effect	0^a nM		0^a nM	blocked	no effect	10.8 ± 0.9 µM	7.9 ± 0.9 µM	6.9 ± 0.3 µM	decreased significantly	0^a nM	blocked	no effect	22 µM			no effect	IC50 (BRS-3 [3]): 10.8 µM; IC50 (BB2R [5]): 6.9 µM
C[C@H](CCC(=O)O)C[C@H](C)C[C@H](C)C(=O)/C=C(\O)[C@H](C)C[C@H](C)C/C=C/[C@@H](C)[C@@H](O)[C@@H](C)[C@@H](O)C[C@@H]1CC[C@@](C)([C@H]2CC[C@@](C)([C@@H](C)O)O2)O1 [ionomycin, reference compound]																		Effect on cytosolic Ca2+ (NSCLC cells; 5 µg/ml): strongly increased
